Measured values published in patent US6825340B2, “Methods and reagents for inactivating ribonucleases” (Ambion, Inc., priority 1998, dated 2004).
Entries after “also recorded” stand apart in the source; their conditions may differ.

What was measured:
T3 RNA polymerase = biological target: T1, T3 RNA polymerase (Enterobacteria phage T3, UniProt P07659); experiment: In vitro transcription reaction (MAXIscript kit), UTP[α-32P] incorporation; format: biochemical; settings: 20 mM reducing reagent
T1 construct: purchased Ambion, Inc
T1 sequence (P07659 whole entry): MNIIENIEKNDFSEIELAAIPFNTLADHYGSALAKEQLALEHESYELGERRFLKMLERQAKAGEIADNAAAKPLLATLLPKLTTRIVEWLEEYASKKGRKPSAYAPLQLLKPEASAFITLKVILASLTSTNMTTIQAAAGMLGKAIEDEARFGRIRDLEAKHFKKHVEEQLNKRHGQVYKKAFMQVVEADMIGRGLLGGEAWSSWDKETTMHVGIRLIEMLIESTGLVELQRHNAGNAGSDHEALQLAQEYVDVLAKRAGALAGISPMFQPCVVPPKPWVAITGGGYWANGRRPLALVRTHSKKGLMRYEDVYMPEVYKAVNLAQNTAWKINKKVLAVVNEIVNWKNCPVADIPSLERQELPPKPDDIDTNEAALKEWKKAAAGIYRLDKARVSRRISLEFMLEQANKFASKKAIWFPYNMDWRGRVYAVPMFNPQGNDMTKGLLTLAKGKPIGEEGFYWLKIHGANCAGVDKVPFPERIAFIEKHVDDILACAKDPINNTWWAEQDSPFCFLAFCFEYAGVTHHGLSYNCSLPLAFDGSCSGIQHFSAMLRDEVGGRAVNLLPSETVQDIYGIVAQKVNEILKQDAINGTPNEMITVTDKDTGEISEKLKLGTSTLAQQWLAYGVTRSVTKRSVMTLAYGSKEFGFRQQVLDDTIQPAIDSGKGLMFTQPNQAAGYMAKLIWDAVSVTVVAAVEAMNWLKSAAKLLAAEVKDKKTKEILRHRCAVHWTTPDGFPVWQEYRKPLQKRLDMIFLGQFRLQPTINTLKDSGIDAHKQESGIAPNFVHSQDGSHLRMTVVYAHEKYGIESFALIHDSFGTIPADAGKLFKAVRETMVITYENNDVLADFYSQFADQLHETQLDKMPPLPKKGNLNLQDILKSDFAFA
Experimental: FIG. 3. […] Transcriptions were performed with T7, T3 and SP6 RNA polymerase in the presence and absence of 20 mM DTT. For each RNA polymerase reaction, pTRI-Xef DNA was the template and UTP[α^32P] was included to measure the efficiency of transcription. Duplicates were performed for each reaction. TCA precipitations were performed on each transcription reaction to measure the percent of the UTP[α^32P] incorporated into RNA.
The transcription reactions were based on the MAXIscript™ transcription kit (Ambion, Inc.). The following were assembled with or without 20 mM reducing reagent in a final volume of 18 μl: NTPs (0.5 mM each), 1 μg linearized DNA template, 2 μl 10 × transcription buffer, and 0.2 μl UTP [α-^32P] (800 Ci/mmol). The reaction mixtures were incubated 60° C. for 10 minutes and then 2 μl of the either SP6, T7 or T3 RNA polymerase (10 units/μl) were added to the reactions, incubated 30° C. for 60 minutes and then TCA precipitated to assess the incorporation of the radioactive label.

[1] = DTNB test of DTT reducing strength (absorbance at 412 nm); format: physicochemical
Source text: DTT has low redox potential (−0.33 volts at pH 7.0) and is capable of maintaining monothiols effectively in the reduced form and of reducing disulfides quantitatively (Cleland, 1964). DTT acts as a protective agent for free sulfhydryl groups. […] DTT's reducing activity can be accurately assayed using 5, 5′-dithiobis (2-nitrobenzoic acid) or DTNB (Cleland, 1964). The reduction of DTNB mediated by DTT generates a yellow color whose absorbance can be measured at 412 nm using a spectrophotometer. RNase A, RNase 1 and RNase T1 all contain disulfide bonds (Ryle and Anfinesen, 1957; Barnard, 1969) and, therefore, are susceptible to reduction.
FIG. 5. DTT is oxidized by incubating at 65° C. for 6 days. DTT was made to 100 mM in water and incubated at 65° C. for 6 days. Fresh DTT and the heated 100 mM were diluted in water to different concentrations and subjected to the DTNB test. Absorbance at 412 nm indicates the reducing strength of the DTT.
To assess the effect that the ribonuclease mixture has on the oxidation of DTT, the RNase mixture at 1 μg/ml was incubated with DTT at 0.05, 0.1, 0.15, 0.2 and 0.25 mM at 60° C. for 20 minutes. 0.1 ml of each sample was added to 0.8 ml of 0.1 M KPO4 (pH 7.7) and 0.1 ml DTNB in 0.1 KPO4 (pH 7.7). Samples which were not treated with heat were also subjected to the DTNB assay for comparison. The DTNB reaction mixtures were incubated at 21° C. for 10 minutes to allow the yellow color to develop. Absorbances were measured at 412 nm. The results were that there was no difference in the reactivity of the DTT whether it had been used to inactivate the RNase mixture or not.
DTT was made to 100 mM in water and incubated at 65° C. for 6 days. This material was diluted to 50, 100, 150, 200, 250 micromolar in water and then assayed for its reducing strength using the DTNB test described in Example 7 and compared to the same concentrations of DTT made fresh in water. The absorbance at 412 nm directly correlates with reducing strength. The greater the absorbance, the greater the reducing power.

[2] = test system: unknown RNase in alkaline phosphatase storage solution; experiment: Isotopic assay of RNase activity in alkaline phosphatase storage solution; format: biochemical; settings: 60° C. for 20 minutes
Experimental: The isotopic RNase assay uses a radioactive RNA synthesized by in vitro transcription as the RNA substrate. The RNA used in the following examples was 1.9 or 4.0 kb in length. The radioactive RNA was synthesized using a T7 MEGAscript™ transcription kit (Ambion, Inc.). The in vitro transcription reaction mixture contained 1.0 μg of linearized DNA template, 2 μl of 10× transcription buffer, 1 μl of UTP[α-^32P] (800 Ci/mmol), 2 μl of each 75 mM ribonucleotide and 2 μl of the T7 RNA polymerase mix, final volume of 20 μl. The reaction was incubated at 37° C. for 3 hours. The transcript was precipitated with 7.5 M LiCl and resuspended in 0.1 ml of 1 mM sodium citrate (pH 6.6) or RNase free water.
2 μl of the RNA probe was incubated with the test sample in a final volume of 10 μl for about 16 hours at 37° C. After incubation, the RNA was fractionated in a denaturing 6 M urea 5% acrylamide gel and then the gel was exposed to x-ray film. Untreated RNA was also fractionated as a control with the test samples for comparative purposes. […] RNase activity was indicated by the intensity of the RNA decreasing and by the appearance of smearing below the intact RNA. […]
A commercial solution of unknown composition to the inventors designed to stabilize the storage of alkaline phosphatase was detected to have RNase activity using the isotopic assay. […]

[3] = test system: unknown RNase in psoralen biotin; experiment: Integrity of psoralen biotin labeled Millennium Markers after 37° C., 16 hours; format: biochemical; settings: 5 mM DTT; 90° C. for 10 minutes; then 37° C. for 16 hours
Experimental: The Millennium™ Markers (Ambion, Inc.) are a set of RNA size markers from 0.5 to 9 kb in length. They are used for determining the length of an unknown RNA. These markers were being labeled with biotin using a psoralen biotin labeling procedure so that they could be detected non-isotopically on a nylon membrane. However, if the Millennium™Markers were incubated at 37° C. for 16 hours after labeling with the psoralen biotin, they were degraded.

RNase A = biological target: T2, RNase A (Bos taurus, UniProt P61823); settings: RNase A 10 μg/ml; 4 mM DTT; 4° C. for 20 minutes; cited from earlier work
T2 sequence (P61823 27-150): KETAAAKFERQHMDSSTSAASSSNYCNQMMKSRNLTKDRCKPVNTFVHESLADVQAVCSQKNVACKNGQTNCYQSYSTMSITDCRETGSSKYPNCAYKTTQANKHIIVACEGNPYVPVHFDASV

## O[C@H](CS)[C@H](O)CS [DTT, dithiothreitol]
T3 RNA polymerase
  inhibition of T3 RNA polymerase transcription: does not inhibit; also recorded: None of the three polymerases were inhibited
[1]; DTT 100 mM in water incubated at 65° C. for 6 days
  stability of DTT reducing strength: completely oxidized
[1]; RNase mixture 1 μg/ml, DTT 0.05-0.25 mM, 60° C. for 20 minutes
  reactivity of DTT after use to inactivate the RNase mixture vs non-reacted DTT: no difference
[1]; sequential inactivations, 60° C. for 20 minutes
  loss of DTT reducing power with each heating step: no detectable loss
[2]; 2 mM DTT
  RNase activity of alkaline phosphatase storage solution: no detectable RNase activity
[2]; 5 mM DTT
  RNase activity of alkaline phosphatase storage solution: no detectable RNase activity
[3]
  integrity of psoralen biotin labeled Millennium Markers: remained intact
RNase A
  RNase A activity (Boshes, 1970): inhibited
